{"source": "ChEMBL document CHEMBL5226341", "about": "“Discovery of a Potent FLT3 Inhibitor (LT-850-166) with the Capacity of Overcoming a Variety of FLT3 Mutations” (J Med Chem, 2021)", "key": {"[1]": {"test_system": "Receptor-type tyrosine-protein kinase FLT3 (Homo sapiens), P36888 [UNDEFINED MUTATION]", "sequence (P36888 whole entry, looked up, change not shown)": "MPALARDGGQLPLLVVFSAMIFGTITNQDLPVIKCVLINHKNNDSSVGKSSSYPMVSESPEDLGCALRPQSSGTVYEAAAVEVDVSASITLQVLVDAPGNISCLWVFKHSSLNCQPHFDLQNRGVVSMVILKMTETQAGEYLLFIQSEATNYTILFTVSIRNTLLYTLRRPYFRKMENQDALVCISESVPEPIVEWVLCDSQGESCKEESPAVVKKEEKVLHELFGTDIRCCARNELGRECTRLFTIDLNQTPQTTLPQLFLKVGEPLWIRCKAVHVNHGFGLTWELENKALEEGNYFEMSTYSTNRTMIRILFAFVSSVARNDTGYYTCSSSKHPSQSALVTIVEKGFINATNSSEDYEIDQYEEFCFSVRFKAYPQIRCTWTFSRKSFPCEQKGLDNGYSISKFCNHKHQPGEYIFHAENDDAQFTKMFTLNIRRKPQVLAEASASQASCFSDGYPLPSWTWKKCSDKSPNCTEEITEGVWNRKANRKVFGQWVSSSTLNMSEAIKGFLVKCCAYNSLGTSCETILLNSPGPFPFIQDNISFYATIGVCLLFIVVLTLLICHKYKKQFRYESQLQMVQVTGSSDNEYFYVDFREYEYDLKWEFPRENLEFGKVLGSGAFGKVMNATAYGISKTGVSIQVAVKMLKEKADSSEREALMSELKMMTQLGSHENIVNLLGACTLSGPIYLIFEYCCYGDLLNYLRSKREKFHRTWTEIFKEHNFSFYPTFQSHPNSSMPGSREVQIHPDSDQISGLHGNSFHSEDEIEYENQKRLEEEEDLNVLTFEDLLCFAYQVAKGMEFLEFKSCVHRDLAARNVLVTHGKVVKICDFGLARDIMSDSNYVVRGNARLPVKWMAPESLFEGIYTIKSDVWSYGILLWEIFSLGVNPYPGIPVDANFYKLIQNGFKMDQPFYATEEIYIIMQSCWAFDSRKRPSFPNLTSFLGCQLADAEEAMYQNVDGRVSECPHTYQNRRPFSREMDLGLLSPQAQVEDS", "assay_type": "cell-based", "settings": "BaF3, dose 0.1-100 nM, time 4.0 hrs"}, "[2]": {"target": "Receptor-type tyrosine-protein kinase FLT3 (Homo sapiens) (UniProt P36888)", "sequence (P36888 whole entry)": "as the sequence (P36888 whole entry, looked up, change not shown) above", "assay": "Inhibition of FLT3 in human MV4-11 cells assessed as inhibition of ERK phosphorylation at Thr202/Tyr204 residue at 10 nM incubated for 4 hrs by western blot analysis", "assay_type": "cell-based"}, "U-937": {"test_system": "U-937", "assay": "Antiproliferative activity against human U-937 cells assessed as reduction in cell viability measured after 72 hrs by CellTiterGlo luminescent assay", "assay_type": "functional, cell-based", "settings": "U-937, 72 h"}, "MV4-11 [3]": {"test_system": "MV4-11", "assay": "Induction of apoptosis in human MV4-11 cells assessed as early apoptotic cells at 50 nM incubated for 24 hrs by AnnexinV-FITC/PI staining based flow cytometry (reference value: 3.09%)", "assay_type": "functional"}, "[4]": {"assay": "Toxicity in ICR mouse assessed as effect on animal's survival rate at 100 mg/kg, iv administered as single dose and measured for 14 days", "assay_type": "organism-based", "settings": "in vivo, 336 h, time 14 day"}, "BaF3 [5]": {"test_system": "BaF3", "assay": "Antiproliferative activity against mouse BaF3 cells harboring FLT3-ITD-F691L mutant assessed as residual cell viability at 10 nM incubated for 72 hrs by CellTiterGlo luminescent assay", "assay_type": "functional"}, "[6]": {"target": "Receptor-type tyrosine-protein kinase FLT3 (Homo sapiens) (UniProt P36888)", "assay": "Inhibition of FLT3 in human MV4-11 cells assessed as inhibition of STAT5 phosphorylation at Tyr694 residue at 10 nM incubated for 4 hrs by western blot analysis", "assay_type": "cell-based"}, "[7]": {"target": "Receptor-type tyrosine-protein kinase FLT3 (Homo sapiens) (UniProt P36888)", "assay": "Inhibition of FLT3 in human MV4-11 cells assessed as inhibition of STAT5 phosphorylation at Tyr694 residue incubated for 4 hrs by western blot analysis", "assay_type": "cell-based", "settings": "dose 0.1-100 nM"}, "BaF3 [8]": {"test_system": "BaF3", "assay": "Antiproliferative activity against mouse BaF3 cells harboring FLT3-ITD-Y842H mutant assessed as reduction in cell viability measured after 72 hrs by CellTiterGlo luminescent assay", "assay_type": "functional, cell-based", "settings": "BaF3, 72 h"}, "[9]": {"assay": "AUC (0 to t) in Sprague-Dawley rat at 10 mg/kg, po measured for 24 hrs by LC-MS/MS analysis", "assay_type": "ADME, organism-based", "parameters": "time 24 hrs, dose 10 mg/kg, route po", "settings": "in vivo"}, "MV4-11 [10]": {"test_system": "MV4-11", "assay": "Induction of apoptosis in human MV4-11 cells assessed as early apoptotic cells at 100 nM incubated for 24 hrs by AnnexinV-FITC/PI staining based flow cytometry (reference value: 3.09%)", "assay_type": "functional"}, "[11]": {"assay": "Toxicity in BALB/c mouse xenografted with human MV4-11 cells assessed as white blood cell count at 15 mg/kg, iv for 21 days", "assay_type": "organism-based", "settings": "in vivo, 504 h, time 21 day"}, "[12]": {"assay": "Toxicity in BALB/c mouse xenografted with human MV4-11 cells assessed as change in body weight at 15 mg/kg, iv BID for 21 days", "assay_type": "organism-based", "settings": "in vivo, 504 h, time 21 day"}, "HCD-57 [13]": {"test_system": "HCD-57", "assay": "Induction of apoptosis in mouse HCD-57 cells harboring FLT3-ITD mutant at 100 nM incubated for 24 hrs by AnnexinV-FITC/PI staining based flow cytometry", "assay_type": "functional, cell-based"}, "[14]": {"assay": "Toxicity in BALB/c mouse xenografted with human MV4-11 cells assessed as morphological changes in liver at 15 mg/kg, iv for 21 days by H and E staining based analysis", "assay_type": "organism-based", "settings": "in vivo, 504 h, time 21 day"}, "[15]": {"assay": "Ratio of IC50 for antiproliferative activity against mouse BaF3 cells harboring FLT3-ITD-N676D mutant to IC50 for antiproliferative activity against mouse BaF3 cells harboring FLT3-ITD mutant", "assay_type": "functional"}, "MOLM-13": {"test_system": "MOLM-13", "assay": "Antiproliferative activity against human MOLM-13 cells assessed as reduction in cell viability measured after 72 hrs by CellTiterGlo luminescent assay", "assay_type": "functional, cell-based", "settings": "MOLM-13, 72 h"}, "BaF3 [16]": {"test_system": "BaF3", "assay": "Antiproliferative activity against mouse BaF3 cells harboring FLT3-ITD-N676D mutant assessed as reduction in cell viability measured after 72 hrs by CellTiterGlo luminescent assay", "assay_type": "functional, cell-based", "settings": "BaF3, 72 h"}, "MV4-11 [17]": {"test_system": "MV4-11", "assay": "Induction of apoptosis in human MV4-11 cells assessed as necrotic cells at 50 nM incubated for 24 hrs by AnnexinV-FITC/PI staining based flow cytometry (reference value: 0.45%)", "assay_type": "functional"}, "MV4-11 [18]": {"test_system": "MV4-11", "assay": "Induction of cell cycle arrest in human MV4-11 cells assessed as proportion of cells at G1 phase at 50 nM incubated for 24 hrs by PI staining based flow cytometry (reference value: 56%)", "assay_type": "functional"}, "HCD-57 [19]": {"test_system": "HCD-57", "assay": "Induction of apoptosis in mouse HCD-57 cells harboring FLT3-D835Y mutant at 100 nM incubated for 24 hrs by AnnexinV-FITC/PI staining based flow cytometry", "assay_type": "functional, cell-based"}, "MV4-11 [20]": {"test_system": "MV4-11", "assay": "Induction of apoptosis in human MV4-11 cells assessed as viable cells at 50 nM incubated for 24 hrs by AnnexinV-FITC/PI staining based flow cytometry (reference value: 92.3%)", "assay_type": "functional", "settings": "read-out: Activity"}, "BaF3 [21]": {"test_system": "BaF3", "assay": "Antiproliferative activity against mouse BaF3 cells harboring FLT3-ITD-F691L mutant assessed as reduction in cell viability incubated for 72 hrs by CellTiterGlo luminescent assay", "assay_type": "functional, cell-based", "settings": "BaF3, 72 h"}, "HCD-57 [22]": {"test_system": "HCD-57", "assay": "Antiproliferative activity against mouse HCD-57 cells harboring FLT3-D835Y mutant assessed as reduction in cell viability measured after 72 hrs by CellTiterGlo luminescent assay", "assay_type": "functional, cell-based"}, "BaF3 [23]": {"test_system": "BaF3", "assay": "Antiproliferative activity against mouse BaF3 cells harboring FLT3-ITD mutant assessed as reduction in cell viability measured after 72 hrs by CellTiterGlo luminescent assay", "assay_type": "functional, cell-based", "settings": "BaF3, 72 h"}, "[24]": {"assay": "Half life in Sprague-Dawley rat at 10 mg/kg, po measured for 24 hrs by LC-MS/MS analysis", "assay_type": "ADME, organism-based", "settings": "in vivo"}, "BaF3 [25]": {"test_system": "BaF3", "assay_type": "functional, cell-based", "settings": "Mus musculus, BaF3, 72 h"}, "MV4-11 [26]": {"test_system": "MV4-11", "assay": "Induction of apoptosis in human MV4-11 cells assessed as early apoptotic cells at 10 nM incubated for 24 hrs by AnnexinV-FITC/PI staining based flow cytometry (reference value: 3.09%)", "assay_type": "functional"}, "HCT-116": {"test_system": "HCT-116", "assay": "Antiproliferative activity against human HCT-116 cells assessed as reduction in cell viability measured after 72 hrs by CellTiterGlo luminescent assay", "assay_type": "functional, cell-based", "settings": "HCT-116, 72 h"}, "[27]": {"assay": "AUC (0 to t) in Sprague-Dawley rat at 1 mg/kg, iv measured for 24 hrs by LC-MS/MS analysis", "assay_type": "ADME, organism-based", "parameters": "dose 1 mg/kg, time 24 hrs, route iv", "settings": "in vivo"}, "[28]": {"assay": "Ratio of IC50 for antiproliferative activity against mouse BaF3 cells harboring FLT3-ITD-F691L mutant to IC50 for antiproliferative activity against mouse BaF3 cells harboring FLT3-ITD mutant", "assay_type": "functional"}, "[29]": {"assay": "Tmax in Sprague-Dawley rat at 10 mg/kg, po measured for 24 hrs by LC-MS/MS analysis", "assay_type": "ADME, organism-based", "settings": "in vivo"}, "[30]": {"assay": "Toxicity in BALB/c mouse xenografted with human MV4-11 cells assessed as platelet count at 15 mg/kg, iv for 21 days", "assay_type": "organism-based", "settings": "in vivo, 504 h, time 21 day"}, "MV4-11 [31]": {"test_system": "MV4-11", "assay": "Induction of apoptosis in human MV4-11 cells assessed as late apoptotic cells at 50 nM incubated for 24 hrs by AnnexinV-FITC/PI staining based flow cytometry (reference value: 4.2%)", "assay_type": "functional"}, "[32]": {"assay": "Clearance in Sprague-Dawley rat at 1 mg/kg, iv measured for 24 hrs by LC-MS/MS analysis", "assay_type": "ADME, organism-based", "settings": "in vivo"}, "MV4-11 [33]": {"test_system": "MV4-11", "assay": "Induction of apoptosis in human MV4-11 cells assessed as late apoptotic cells at 10 nM incubated for 24 hrs by AnnexinV-FITC/PI staining based flow cytometry (reference value: 4.2%)", "assay_type": "functional"}, "[34]": {"assay": "Oral bioavailability in Sprague-Dawley rat at 10 mg/kg measured for 24 hrs by LC-MS/MS analysis", "assay_type": "ADME, organism-based", "settings": "in vivo"}}, "note": "pIC50: −log10 of the molar value. Active and inactive are the calls of the source. The rule behind the calls is not given here.", "data": [{"smiles": "CCN1CCN(c2ccc(C(=O)Nc3cc(-c4ccc5ncn(Cc6c(Cl)cccc6Cl)c5c4)[nH]n3)cc2)CC1", "values": [{"measurement": "inhibition", "setting": "[1]", "result": "Dose-Dependent Effect"}, {"measurement": "inhibition", "setting": "[2]", "result": 100, "unit": "%"}, {"measurement": "pIC50", "setting": "U-937", "result": "< 5.70"}, {"measurement": "Activity", "setting": "MV4-11 [3]", "result": 11.3, "unit": "%"}, {"measurement": "Activity", "setting": "[4]", "result": "Non-Toxic"}, {"measurement": "Activity", "setting": "BaF3 [5]", "result": 43.16, "unit": "%"}, {"measurement": "inhibition", "setting": "[6]", "result": 100, "unit": "%"}, {"measurement": "inhibition", "setting": "[7]", "result": "Dose-Dependent Effect"}, {"measurement": "pIC50", "setting": "BaF3 [8]", "result": "> 8.82"}, {"measurement": "AUC(0-t) at 24 h", "setting": "[9]", "result": 50.9, "unit": "ng·h/mL"}, {"measurement": "Activity", "setting": "MV4-11 [10]", "result": 15.2, "unit": "%"}, {"measurement": "Activity", "setting": "[11]", "result": "Non-Toxic"}, {"measurement": "Activity", "setting": "[12]", "result": "Non-Toxic"}, {"measurement": "Activity", "setting": "HCD-57 [13]", "result": "Active"}, {"measurement": "Activity", "setting": "[14]", "result": "Non-Toxic"}, {"measurement": "Ratio IC50", "setting": "[15]", "result": 5.58}, {"measurement": "pIC50", "setting": "MOLM-13", "result": 8.01}, {"measurement": "pIC50", "setting": "BaF3 [16]", "result": 7.37}, {"measurement": "Activity", "setting": "MV4-11 [17]", "result": 0.87, "unit": "%"}, {"measurement": "Activity", "setting": "MV4-11 [18]", "result": 88.1, "unit": "%"}, {"measurement": "Activity", "setting": "HCD-57 [19]", "result": "Active"}, {"measurement": "viability at 0.05 µM", "setting": "MV4-11 [20]", "result": 61.5, "unit": "%"}, {"measurement": "pIC50", "setting": "BaF3 [21]", "result": 8.08}, {"measurement": "Activity", "setting": "HCD-57 [22]", "result": "Active"}, {"measurement": "pIC50", "setting": "BaF3 [23]", "result": 8.12}, {"measurement": "half-life", "setting": "[24]", "result": 3.58, "unit": "h"}, {"measurement": "pIC50", "setting": "BaF3 [25]", "result": "> 8.82"}, {"measurement": "Activity", "setting": "MV4-11 [26]", "result": 10.4, "unit": "%"}, {"measurement": "pIC50", "setting": "HCT-116", "result": "< 5.00"}, {"measurement": "AUC(0-t) at 24 h", "setting": "[27]", "result": 391, "unit": "ng·h/mL"}, {"measurement": "Ratio IC50", "setting": "[28]", "result": 1.09}, {"measurement": "Tmax", "setting": "[29]", "result": 1.33, "unit": "h"}, {"measurement": "Activity", "setting": "[30]", "result": "Non-Toxic"}, {"measurement": "Activity", "setting": "MV4-11 [31]", "result": 26.3, "unit": "%"}, {"measurement": "clearance", "setting": "[32]", "result": 40.2, "unit": "mL/min/kg"}, {"measurement": "Activity", "setting": "MV4-11 [33]", "result": 20.5, "unit": "%"}, {"measurement": "bioavailability", "setting": "[34]", "result": 1.3, "unit": "%"}]}]}
